# Measurements taken from BindingDB's records for doi:10.1021/jm950639r (Eli Lilly, 1996).
# How the values were obtained:
# Assay in all cases: HIV-1 RT Assay
# [1] = biological target: T1, Gag-Pol polyprotein [588-1127,L687I]/[588-1147,L687I] (Human immunodeficiency virus 1, UniProt P04585, L687I)
# T1 construct: 588-1127; 588-1147
# [2] = biological target: T2, Gag-Pol polyprotein [588-1127,Y768C]/[588-1147,Y768C] (Human immunodeficiency virus 1, UniProt P04585, Y768C)
# T2 construct: 588-1127; 588-1147
# [3] = biological target: T3, Gag-Pol polyprotein [588-1027]/[588-1147] (Human immunodeficiency virus 1, UniProt P04585)
# T3 construct: 588-1027; 588-1147
Compound,IC50 [1] [nM],IC50 [2] [nM],also measured
"CC(C)=CCN1Cc2cc(Cl)cc3[nH]c(=S)n(c23)C[C@@H]1C [(11S)-6-chloro-11-methyl-10-(3-methylbut-2-en-1-yl)-1,3,10-triazatricyclo[6.4.1.0^{4,13}]trideca-4,6,8(13)-triene-2-thione]",32200,13000,–
S=C(NCCc1c[nH]c2ccccc12)Nc1ccc(Br)cn1 [1-(5-bromopyridin-2-yl)-3-[2-(1H-indol-3-yl)ethyl]thiourea],> 2500,–,–
S=C(NCCc1nc2ccccc2[nH]1)Nc1ccc(Br)cn1 [N-[2-(2-Benzimidazolyl)ethyl]-N-[2-(5-bromopyridyl)]-thiourea],> 2500,1860,IC50 [3]: 21 nM
"CC(=O)NCc1ccc(F)c(CCNC(=S)Nc2ccc(Br)cn2)c1F [N-[2-(3-(Acetamidomethyl)-2,6-difluorophenethyl)]-N-[2-(5-bromopyridyl)]thiourea]",–,–,"IC50 ([1]; pH 7.8, 37 °C): > 2000 nM; IC50 ([2]; pH 7.8, 37 °C): > 2000 nM"
"S=C(NCCn1nc2ccccc2n1)Nc1ccc(Br)cn1 [3-[2-(2H-1,2,3-benzotriazol-2-yl)ethyl]-1-(5-bromopyridin-2-yl)thiourea]",–,100,–
"COCc1ccc(F)c(CCNC(=S)Nc2ccc(Br)cn2)c1F [1-(5-bromopyridin-2-yl)-3-{2-[2,6-difluoro-3-(methoxymethyl)phenyl]ethyl}thiourea]",–,–,"IC50 ([2]; pH 7.8, 37 °C): 100 nM"
"CCOc1ccc(F)c(CCNC(=S)Nc2ncc(C(F)(F)F)s2)c1Cl [1-[2-(2-chloro-3-ethoxy-6-fluorophenyl)ethyl]-3-[5-(trifluoromethyl)-1,3-thiazol-2-yl]thiourea]",7000,7000,IC50 [3]: 47 nM
"CCOc1ccc(OCC)c(CCNC(=S)Nc2ccc(Br)cn2)c1 [1-(5-bromopyridin-2-yl)-3-[2-(2,5-diethoxyphenyl)ethyl]thiourea]",–,–,IC50 [3]: 18 nM
"Cc1cc2nn(CCNC(=S)Nc3ccc(Br)cn3)nc2cc1C [1-(5-bromopyridin-2-yl)-3-[2-(5,6-dimethyl-2H-1,2,3-benzotriazol-2-yl)ethyl]thiourea]",> 2500,100,–
"CNC(=O)c1ccc(F)c(CC/N=C(\S)Nc2ccc(Br)cn2)c1F [3-(2-{[(5-bromopyridin-2-yl)carbamothioyl]amino}ethyl)-2,4-difluoro-N-methylbenzamide]",–,–,"IC50 ([1]; pH 7.8, 37 °C): > 2000 nM; IC50 ([2]; pH 7.8, 37 °C): > 2000 nM"
COc1ccc2[nH]cc(CC/N=C(\S)Nc3ccc(Br)cn3)c2c1 [1-(5-bromopyridin-2-yl)-3-[2-(5-methoxy-1H-indol-3-yl)ethyl]thiourea],> 2500,–,–
